In ChEMBL document CHEMBL5210121, “Affinity On-target Cellular Literature for EUbOPEN Chemogenomics Library wave 3” (2023) one finds EC50 and IC50 data, which are given here for 15 compounds.

In experiment [1] the target is D(4) dopamine receptor (Homo sapiens, UniProt P21917). Briefly: Affinity On-target Cellular interaction (Fluorometric Imaging Plate Reader (FLIPR) Assay (agonist activity at human D4.4 receptor in HEK293 cells coexpressing G-alpha-qo5)) EUB0000332a DRD4. Type of experiment: cell-based. Further details: mode of action Negative control for ABT-724, recommended concentration 100 nM.

Experiment [2] concerns the target Cystic fibrosis transmembrane conductance regulator (Homo sapiens, UniProt P13569, F508DEL). The experiment is described as follows: Affinity On-target Cellular interaction (CFTR Restoration Trans-Epithelial Current Clamp (TECC) assay (in HBE cells from F508del CF patients)) EUB0000264b CFTR. Type of experiment: cell-based. Further details: mode of action Negative control for A-1596586, recommended concentration 1 uM.

Experiment [3] deals with Endothelin receptor type B (Homo sapiens, UniProt P24530). The experiment is described as follows: Affinity On-target Cellular interaction (Cellular functional assay (antagonist effect, Eurofins)) EUB0000339a EDNRB. Further details: mode of action Negative control for A-192621, recommended concentration 100 nM.
For experiment [4], the target named is Activin receptor type-1B (Homo sapiens, UniProt P36896). Briefly: Affinity On-target Cellular interaction (NanoBRET assay (HEK293T cells)) EUB0000710a ACVR1B.
In experiment [5] the target is TGF-beta receptor type-1 (Homo sapiens, UniProt P36897). Briefly: Affinity On-target Cellular interaction (NanoBRET assay (HEK293T cells)) EUB0000710a TGFBR1. (In BRET a luciferase serves as donor, and the signal depends on an acceptor being close.)
Sequence of TGF-beta receptor type-1 (P36897 whole entry): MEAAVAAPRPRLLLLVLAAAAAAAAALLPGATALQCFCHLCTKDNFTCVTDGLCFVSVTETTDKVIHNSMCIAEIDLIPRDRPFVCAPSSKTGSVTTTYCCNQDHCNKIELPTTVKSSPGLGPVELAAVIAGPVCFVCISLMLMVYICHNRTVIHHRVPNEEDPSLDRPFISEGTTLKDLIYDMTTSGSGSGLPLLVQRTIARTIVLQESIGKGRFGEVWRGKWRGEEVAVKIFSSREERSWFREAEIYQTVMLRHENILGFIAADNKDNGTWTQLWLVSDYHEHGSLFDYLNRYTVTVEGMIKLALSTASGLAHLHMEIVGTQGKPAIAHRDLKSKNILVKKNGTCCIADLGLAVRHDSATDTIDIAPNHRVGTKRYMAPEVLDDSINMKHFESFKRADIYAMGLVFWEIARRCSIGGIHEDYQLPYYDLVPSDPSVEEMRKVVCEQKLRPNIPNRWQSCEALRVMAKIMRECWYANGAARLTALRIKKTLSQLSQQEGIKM
The target of experiment [6] is Inhibitor of nuclear factor kappa-B kinase subunit epsilon (Homo sapiens, UniProt Q14164).
Sequence of Inhibitor of nuclear factor kappa-B kinase subunit epsilon (Q14164 whole entry): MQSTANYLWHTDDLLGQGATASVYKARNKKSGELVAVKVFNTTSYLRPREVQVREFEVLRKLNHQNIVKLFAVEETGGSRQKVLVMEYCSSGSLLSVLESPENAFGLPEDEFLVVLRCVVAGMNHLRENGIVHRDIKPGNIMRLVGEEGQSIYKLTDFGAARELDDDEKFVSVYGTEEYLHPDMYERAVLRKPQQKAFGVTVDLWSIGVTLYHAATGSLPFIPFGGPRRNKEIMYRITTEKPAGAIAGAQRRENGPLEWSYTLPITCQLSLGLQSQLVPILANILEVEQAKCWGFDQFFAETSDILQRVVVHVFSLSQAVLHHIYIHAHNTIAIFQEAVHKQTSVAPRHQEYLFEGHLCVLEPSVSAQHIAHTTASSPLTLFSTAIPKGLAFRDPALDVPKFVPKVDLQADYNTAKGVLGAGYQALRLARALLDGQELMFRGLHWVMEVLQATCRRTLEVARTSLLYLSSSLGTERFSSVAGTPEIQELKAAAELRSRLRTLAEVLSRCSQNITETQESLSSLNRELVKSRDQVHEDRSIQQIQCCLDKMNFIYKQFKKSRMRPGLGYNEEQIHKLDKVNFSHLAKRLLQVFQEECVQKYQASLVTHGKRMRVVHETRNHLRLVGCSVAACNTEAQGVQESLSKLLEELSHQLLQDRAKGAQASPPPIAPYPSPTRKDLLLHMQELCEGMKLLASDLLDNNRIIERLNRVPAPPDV
Experiment [7] has as its target Serine/threonine-protein kinase TBK1 (Homo sapiens, UniProt Q9UHD2).
Experiment [8] addresses Proteinase-activated receptor 1 (Homo sapiens, UniProt P25116). Briefly: Affinity On-target Cellular interaction (Functional cellular assay in HEK cells expressing F2R) EUB0000333a F2R. Type of experiment: cell-based. Further details: mode of action Negative control for BAY-386, recommended concentration 100 nM.
Experiment [9] concerns the target Lutropin-choriogonadotropic hormone receptor (Homo sapiens, UniProt P22888). Briefly: Affinity On-target Cellular interaction (Cell-based assay (LH Antagonism)) EUB0000340a LHCGR. Also on record: mode of action Negative control for BAY-899, recommended concentration 1 uM.
The target in experiment [10] is Bifunctional epoxide hydrolase 2 (Homo sapiens, UniProt P34913). Briefly: Affinity On-target Cellular interaction (ELISA (inhibition of sEH in human Hep G2 cells)) EUB0000542a EPHX2. It counts as cell-based. Further details: mode of action Inhibitor, recommended concentration 100 nM.
Sequence of Bifunctional epoxide hydrolase 2 (P34913 whole entry): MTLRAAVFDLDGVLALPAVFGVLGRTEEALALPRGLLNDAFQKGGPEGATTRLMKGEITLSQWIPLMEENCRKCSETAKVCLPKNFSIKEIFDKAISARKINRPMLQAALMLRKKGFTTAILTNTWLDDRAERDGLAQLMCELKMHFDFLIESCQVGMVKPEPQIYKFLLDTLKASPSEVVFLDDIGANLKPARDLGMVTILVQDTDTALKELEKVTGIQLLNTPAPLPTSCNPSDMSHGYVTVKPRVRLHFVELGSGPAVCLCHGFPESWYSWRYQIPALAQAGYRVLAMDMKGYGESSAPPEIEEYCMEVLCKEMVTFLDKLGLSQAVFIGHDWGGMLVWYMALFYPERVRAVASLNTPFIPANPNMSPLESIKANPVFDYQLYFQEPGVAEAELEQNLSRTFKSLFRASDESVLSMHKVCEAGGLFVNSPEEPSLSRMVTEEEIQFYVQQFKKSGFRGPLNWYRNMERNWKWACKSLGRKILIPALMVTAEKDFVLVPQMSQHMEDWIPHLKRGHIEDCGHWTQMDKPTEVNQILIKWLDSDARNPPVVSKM
Experiment [11] concerns the target Mitogen-activated protein kinase 1 (Homo sapiens, UniProt P28482). Briefly: Affinity On-target Cellular interaction (Cellular assay (inhibition of RSK phosphorylation, A375SM cells)) EUB0000700a MAPK1.
Experiment [12] addresses Serine/threonine-protein kinase PLK1 (Homo sapiens, UniProt P53350). The experiment is described as follows: Affinity On-target Cellular interaction (ELISA (PLK1 phosphorylation of Ser15-p53 in HeLa cells)) EUB0000698a PLK1. Type of experiment: cell-based. Further details: mode of action Inhibitor, recommended concentration 100 nM.
Experiment [13] has as its target Leucine-rich repeat serine/threonine-protein kinase 2 (Homo sapiens, UniProt Q5S007). The experiment is described as follows: Affinity On-target Cellular interaction (NanoBRET assay (HEK293T cells)) EUB0000706a LRRK2.
A short description of experiment [14]: Affinity On-target Cellular interaction (Cellular human mast cell degranulation assay) EUB0000714a SYK.
Experiment [15] has as its target T1, Dual specificity protein kinase CLK1 (Homo sapiens, UniProt P49759). The experiment is described as follows: Affinity On-target Cellular interaction (NanoBRET assay (HEK293T cells)) EUB0000705a CLK1.
Experiment [16] has as its target Dual specificity protein kinase CLK2 (Homo sapiens, UniProt P49760). The experiment is described as follows: Affinity On-target Cellular interaction (NanoBRET assay (HEK293T cells)) EUB0000705a CLK2.
Experiment [17] addresses T2, Dual specificity protein kinase CLK4 (Homo sapiens, UniProt Q9HAZ1). Briefly: Affinity On-target Cellular interaction (NanoBRET assay (HEK293T cells)) EUB0000705a CLK4.
The target in experiment [18] is T1, Dual specificity protein kinase CLK1. The experiment is described as follows: Affinity On-target Cellular interaction (NanoBRET assay (HEK293T cells)) EUB0000321b CLK1. Also on record: mode of action Inhibitor, recommended concentration 100 nM.
In experiment [19] the target is T2, Dual specificity protein kinase CLK4. Briefly: Affinity On-target Cellular interaction (NanoBRET assay (HEK293T cells)) EUB0000321b CLK4. Also on record: mode of action Inhibitor, recommended concentration 100 nM.
Experiment [20] addresses G-protein coupled receptor 52 (Homo sapiens, UniProt Q9Y2T5).

For orientation: pEC50 means −log10 of the EC50, conventionally taken in molar units. Usually pIC50 stands for the negative decadic logarithm of the IC50, by convention in mol/L. High values mean a small IC50, low ones a large IC50.

SMILES strings stand for the structures. pEC50, pIC50: −log10 of the molar value.

T2 sequence (Q9HAZ1 whole entry): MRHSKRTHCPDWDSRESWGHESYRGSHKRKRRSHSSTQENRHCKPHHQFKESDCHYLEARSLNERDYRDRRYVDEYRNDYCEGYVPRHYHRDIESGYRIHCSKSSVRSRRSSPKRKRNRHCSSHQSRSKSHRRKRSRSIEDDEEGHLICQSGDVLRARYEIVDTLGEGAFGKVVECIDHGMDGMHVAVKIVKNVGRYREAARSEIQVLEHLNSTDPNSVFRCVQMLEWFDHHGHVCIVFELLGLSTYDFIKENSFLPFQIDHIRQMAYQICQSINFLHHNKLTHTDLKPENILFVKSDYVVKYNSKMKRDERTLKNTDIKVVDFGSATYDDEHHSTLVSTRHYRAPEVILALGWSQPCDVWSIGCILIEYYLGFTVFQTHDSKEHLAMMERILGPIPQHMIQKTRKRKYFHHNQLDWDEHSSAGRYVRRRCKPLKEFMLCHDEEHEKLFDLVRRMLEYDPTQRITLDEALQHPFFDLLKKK
T1 sequence (P49759 whole entry): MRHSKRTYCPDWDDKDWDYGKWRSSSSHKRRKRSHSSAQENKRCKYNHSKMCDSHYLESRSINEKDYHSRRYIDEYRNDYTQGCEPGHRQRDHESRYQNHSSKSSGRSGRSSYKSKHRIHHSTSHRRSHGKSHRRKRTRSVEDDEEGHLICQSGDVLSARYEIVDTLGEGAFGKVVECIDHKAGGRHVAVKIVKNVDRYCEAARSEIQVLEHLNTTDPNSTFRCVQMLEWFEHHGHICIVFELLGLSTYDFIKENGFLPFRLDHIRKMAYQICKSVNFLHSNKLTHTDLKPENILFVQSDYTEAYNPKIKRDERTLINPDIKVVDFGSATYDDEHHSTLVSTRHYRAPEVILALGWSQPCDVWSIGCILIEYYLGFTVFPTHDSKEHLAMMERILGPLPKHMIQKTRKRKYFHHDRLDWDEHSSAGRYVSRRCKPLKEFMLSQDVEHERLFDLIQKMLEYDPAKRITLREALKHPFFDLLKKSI
Sequence of Lutropin-choriogonadotropic hormone receptor (P22888 whole entry): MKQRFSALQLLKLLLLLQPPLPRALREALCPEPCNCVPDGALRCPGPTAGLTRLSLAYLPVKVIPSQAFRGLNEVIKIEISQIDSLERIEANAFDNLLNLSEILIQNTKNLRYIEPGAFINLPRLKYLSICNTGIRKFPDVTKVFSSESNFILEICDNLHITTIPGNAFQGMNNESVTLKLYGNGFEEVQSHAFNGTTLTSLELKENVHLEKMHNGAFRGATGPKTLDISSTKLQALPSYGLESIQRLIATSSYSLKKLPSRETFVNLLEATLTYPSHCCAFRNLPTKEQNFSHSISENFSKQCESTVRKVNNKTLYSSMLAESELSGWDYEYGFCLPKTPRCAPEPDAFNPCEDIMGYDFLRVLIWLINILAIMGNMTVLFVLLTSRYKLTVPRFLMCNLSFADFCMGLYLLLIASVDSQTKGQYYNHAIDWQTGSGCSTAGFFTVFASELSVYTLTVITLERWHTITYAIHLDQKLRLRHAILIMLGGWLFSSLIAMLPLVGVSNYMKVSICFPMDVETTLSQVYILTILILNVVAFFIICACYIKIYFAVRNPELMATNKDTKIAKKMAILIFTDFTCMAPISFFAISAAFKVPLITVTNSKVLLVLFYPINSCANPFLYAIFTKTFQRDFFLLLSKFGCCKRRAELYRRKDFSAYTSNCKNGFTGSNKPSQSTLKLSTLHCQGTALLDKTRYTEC
Sequence of Dual specificity protein kinase CLK2 (P49760 whole entry): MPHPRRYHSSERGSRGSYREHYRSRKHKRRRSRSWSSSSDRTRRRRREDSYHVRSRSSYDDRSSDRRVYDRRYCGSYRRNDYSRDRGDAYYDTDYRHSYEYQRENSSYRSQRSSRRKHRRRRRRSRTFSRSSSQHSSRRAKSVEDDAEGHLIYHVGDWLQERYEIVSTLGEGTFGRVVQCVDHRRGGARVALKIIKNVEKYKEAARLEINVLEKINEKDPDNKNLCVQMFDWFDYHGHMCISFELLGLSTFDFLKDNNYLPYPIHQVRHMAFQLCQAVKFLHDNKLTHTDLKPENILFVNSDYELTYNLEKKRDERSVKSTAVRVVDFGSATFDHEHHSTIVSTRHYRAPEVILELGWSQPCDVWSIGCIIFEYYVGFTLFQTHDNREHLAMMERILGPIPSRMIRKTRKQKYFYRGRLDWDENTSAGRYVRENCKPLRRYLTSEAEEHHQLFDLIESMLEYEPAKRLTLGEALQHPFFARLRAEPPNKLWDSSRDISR
Sequence of Serine/threonine-protein kinase PLK1 (P53350 whole entry): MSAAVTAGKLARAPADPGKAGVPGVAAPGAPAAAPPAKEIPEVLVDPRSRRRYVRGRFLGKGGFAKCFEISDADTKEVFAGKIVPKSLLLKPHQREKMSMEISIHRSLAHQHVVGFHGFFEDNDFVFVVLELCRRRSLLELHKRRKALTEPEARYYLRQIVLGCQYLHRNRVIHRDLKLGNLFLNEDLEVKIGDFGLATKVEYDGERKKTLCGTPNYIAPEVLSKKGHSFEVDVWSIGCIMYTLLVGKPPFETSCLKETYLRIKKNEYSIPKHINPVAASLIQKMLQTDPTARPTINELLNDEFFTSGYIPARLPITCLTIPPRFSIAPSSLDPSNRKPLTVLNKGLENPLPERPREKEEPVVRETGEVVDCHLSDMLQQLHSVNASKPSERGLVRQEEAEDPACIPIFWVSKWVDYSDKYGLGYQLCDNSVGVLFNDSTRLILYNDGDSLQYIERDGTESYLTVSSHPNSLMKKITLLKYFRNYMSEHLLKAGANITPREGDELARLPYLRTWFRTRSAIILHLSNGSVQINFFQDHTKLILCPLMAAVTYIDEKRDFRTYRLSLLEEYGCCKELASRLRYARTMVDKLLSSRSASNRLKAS
Sequence of G-protein coupled receptor 52 (Q9Y2T5 whole entry): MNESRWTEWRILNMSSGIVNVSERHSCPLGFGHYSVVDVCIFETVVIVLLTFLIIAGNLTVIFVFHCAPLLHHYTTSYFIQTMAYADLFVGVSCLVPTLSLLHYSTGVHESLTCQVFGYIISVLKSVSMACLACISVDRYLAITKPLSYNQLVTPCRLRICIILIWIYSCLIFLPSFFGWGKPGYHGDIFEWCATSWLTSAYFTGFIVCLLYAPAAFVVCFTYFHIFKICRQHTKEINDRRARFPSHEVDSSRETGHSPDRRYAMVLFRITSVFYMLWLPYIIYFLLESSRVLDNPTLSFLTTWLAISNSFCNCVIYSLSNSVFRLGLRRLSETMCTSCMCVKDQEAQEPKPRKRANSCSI

Take `CSc1cccnc1N1CCN(Cc2nc3ccccc3[nH]2)CC1` [A-769]: the pEC50 in experiment [1] is under 5.00.

In experiment [2], `COc1ccc2c(c1)O[C@H](c1ccc(OC)c(OC)c1)C[C@@H]2NC(=O)C1(c2ccc3c(c2)OC(F)(F)O3)CC1` [A-1596584] gave a pEC50 of under 5.52.

In [3], `CCCOc1ccc([C@@H]2[C@@H](C(=O)O)[C@H](c3ccc4c(c3)OCO4)CN2CC(=O)Nc2c(CC)cccc2CC)cc1` [A-1806262] showed a pIC50 of under 5.00.

Regarding `Cc1cnc(-c2cc(Cl)ccc2F)cc1-n1c(=O)n(CC(N)=O)c2ccccc21` [Al11], the pIC50 in [4] and in experiment [5] was under 5.00 throughout.

As for `CN(C)c1ncnc(-c2ccc3nc(Nc4cc(CN5CCN(C(=O)CC(F)(F)F)CC5)ccn4)[nH]c3c2)c1Cl` [BAY-440], the pIC50 in experiment [6] and in [7] was under 4.57 in each case.

Take `Cc1noc([C@H]2C[C@@H](c3ccc(C(F)(F)F)cc3)CN(C(=O)N3CCS(=O)(=O)C3)C2)n1` [BAY-448]: the pIC50 in experiment [8] is under 5.00.

`O=C(Nc1ccc(Oc2ccc(F)cc2)cc1)N1CCc2ncccc2[C@H]1c1ccc(F)cc1` [BAY-897]: the pIC50 in experiment [9] was under 4.80.

In turn, `CCOCCn1cc(C(=O)Nc2ccc(-n3nc(-c4cccnc4)cc3C(F)(F)F)cn2)ccc1=O` [BI 1935] gave a pIC50 in [10] of over 9.00.

The compound `C[C@H](NC(=O)Nc1cc2[nH]ncc2c(CO)n1)c1ccccn1` [ERKi-NC] gave a pIC50 in experiment [11] of under 5.00.

Compound `COc1cc2ncn(-c3cc(OCc4ccccc4C(F)(F)F)c(C(N)=O)s3)c2cc1OC` [GW843682X] gave a pIC50 in [12] of 6.85.

In turn, `C[C@@H]1CN(c2cc(-c3nn(C)c4ccc(OC5(C)CC5)cc34)ncn2)C[C@H](C)O1` [MLi-2-NC] showed a pEC50 in [13] of 6.38.

`Cc1cc(Nc2nccc(C)n2)cc(-c2cnc([C@@]3(O)CC[C@H](C(=O)O)C(C)(C)C3)s2)c1` [MRL-SYKi] showed a pIC50 in experiment [14] of 7.42.

On to `CN1CCN(C(=O)C(C)(C)c2ccc(C(=O)Nc3cn4cc(-c5cc(C(C)(C)C)cc(C(C)(C)C)c5)ccc4n3)cc2)CC1` [T3-CLK-N], for which the pIC50 in experiment [15], in experiment [16] and in experiment [17] was under 5.00 throughout.

As for `CN1CCN(C(=O)C(C)(C)c2ccc(C(=O)Nc3cn4cc(-c5ccncc5)ccc4n3)cc2)CC1` [T3-CLK], the pIC50 in experiment [18] was 8.40; in [19] it was under 8.70.

Compound `Cc1nc(Cc2cccc(C(F)(F)F)c2)sc1-c1ccc(C(N)=O)nc1` [TP-024n] had a pEC50 in [20] of under 6.00.
